Experiment [1] has as its system MB cells isolated from Math1-Cre/Ptch1^fl/fl tumor mice. Description: Cell Counting Kit-8 (CCK8) assay of MB cells, T3 and cisplatin. It is filed as cell-based, mouse.
Procedure: MB cells were treated with vehicle (DMSO) as a control. […] The survival of MB cells was measured by Cell Counting Kit-8 (CCK8) following the treatment.
Experiment [2] concerns SmoM2 tumor mice. Description: Survival and tumor markers in SmoM2 tumor mice. The format is in vivo, mouse. How it is done: (§1) Math1-Cre mice, Ptch1^fl/fl mice, R26-SmoM2 mice, Math1-CreER mice, CAG-Cas9 mice and were purchased from the Jackson Laboratory. All mice were bred and genotyped as recommended by the Jackson Laboratory. CB17/SCID mice were bred in the Fox Chase Cancer Center Laboratory Animal Facility (LAF).
(§2) GDC0449 (50 mg/kg) diluted using MCT and administrated to mice by oral gavage once a day. […] Log-rank survival analyses were performed in GraphPad Prism 9.
Conversely, pHH3, a cell proliferation maker, was decreased in T3-treated mice tumor tissues (see, FIG. 5, Panel B).

The subject of experiment [3] is Group3 (Ms)MB cells. The experiment in a line: EdU incorporation, proliferation of MB group3 (Mouse) cells. The format is cell-based. The note with it: T3, 72 hours. Here is the method:
(§3) The EdU incubated cells were cultured at 1 μM in culture medium for 1 hour. 4% PFA was used to fix the cells for 10 minutes. The cells were incubated with the staining solution for 20 minutes in the dark. The cells were washed with PBST for 5 minutes/time for 3 times.
(§4) The percentage of EdU+ cells in the culture was quantified (see, FIG. 6, Panel A). […] The percentage of EdU+ cells in the culture was quantified (see, FIG. 6, Panel B). […] The percentage of EdU+ cells in the culture were quantified (see, FIG. 6, Panel C). […] Thus, thyroid hormone may be used to treat different type of medulloblastoma.

Experiment [4] deals with Math1-Cre/Ptch1^fl/fl tumor mice. The experiment in a line: Survival and tumor markers in Math1-Cre/Ptch1fl/fl tumor mice. The format is in vivo, mouse. How it is done:
as §1, §2

Experiment [5] concerns D283. Description: EdU incorporation, proliferation of human MB group3 cell line D283. The note with it: D283, T3, 72 hours. It is filed as cell-based.
From the text: (§5) MB cells were isolated from Math1-Cre/Ptch1^fl/fl, Math1-Cre/Ptch1^fl/fl/Cas9 and SmoM2 tumor-bearing mice at 6 to 8 weeks of age, respectively. Tumor tissue was dissociated in a papain solution to obtain a single-cell suspension and then centrifuged through a 35% and 65% Percoll gradient. Cells from the 35% to 65% interface were suspended in Dulbecco's PBS (DPBS) plus 0.5% BSA. Cells were then suspended in NB-B22 (B22 supplement followed protocol in Jacob Hanna's lab) and plated on poly-D-lysine (PDL)-coated coverslips (BD Biosciences). D283, D341 and MB-shh cell lines were cultured in DMEM with 10% fetal bovine serum, 1% Pen/Strep and 2 mM L-glutamine (Invitrogen).
as §3, §4

Experiment [6] concerns Shh type PDX-luciferase cells. The experiment in a line: Human shh type MB PDX-luciferase growth in cerebellum of SCID mice (bioluminescence). It is filed as in vivo. The note with it: SCID mice treated by T3 for 3 weeks vs untreated controls. Here is the method:
as §2
(§6) MB cells were stereotaxically injected into the cerebellum of 6- to 8-week-old SCID mice. Before transplantation, MB cells were infected with lentivirus carrying firefly luciferase for 24 hours. For transplantation with MB cells after the virus infection, the cell suspension was centrifuged at 1000 rpm for 5 minutes to remove the supernatant. 1×10^6 cells (based on Trypan blue staining) were injected into the cerebellum of each mouse. Animals were monitored weekly using in vivo bioluminescence imaging.

The subject of experiment [7] is MB cells. Description: Immunostaining of differentiation marker MAP2 in MB cells. The note with it: MB cells treated by T3 for 48 hours. It is filed as cell-based, mouse.
Procedure: Immunofluorescent staining of cells was carried out according to standard methods. Briefly, cells were blocked and permeabilized for 1 hour with PBS containing 0.1% Triton X-100 and 10% normal goat serum, stained with primary antibodies (1:400) overnight at 4° C. and incubated with secondary antibodies (1:500) for 1 hour. Cells were counterstained with DAPI and mounted with Fluoromount-G (Southern Biotech) before being visualized using a Nikon Eclipse Ti microscope.
Experiment [8] relates to D341. The experiment in a line: EdU incorporation, proliferation of human MB group3 cell line D341. Particulars: D341, T3, 72 hours. It is filed as cell-based.
From the text: as §5, §3, §4

Experiment [9] has as its system RCMB28 cells. Here is the method:
as §2, §6
G3-MB PDOXs were generated by intracranial transplantation of RCMB28 cells transduced with a luciferase expressing construct.

Experiment [10] concerns MB ptch−/− cells. The experiment in a line: EdU incorporation, proliferation of MB ptch−/− cells. The format is cell-based, mouse. The note with it: NB-B22 cultured MB ptch−/− cells, different concentrations of T3, 48 hours; inhibition concentration dependent.
From the text: as §5, §2, §3
The inhibition was concentration dependent. The percentage of EdU+ cells in the culture were quantified (see, FIG. 1, Panel B). DAPI was used to counterstain cell nuclei.

The mark [11] stands for this setting: T3 200 ng/g i.p. twice a day vs without T3.
Where [12] appears, read: T3-treated mice, immunohistochemistry.

Consider `N.N.[Cl][Pt][Cl]` [cisplatin], for which the “cell proliferation / survival of MB cells (CCK8)” value in experiment [1] (cisplatin alone at seven different concentrations vs vehicle (DMSO)) is “inhibited cell proliferation significantly except 31.23 nM and 62.5 nM”.

Consider `N[C@@H](Cc1cc(I)c(Oc2ccc(O)c(I)c2)c(I)c1)C(=O)O` [T3, triiodothyronine], for which, in experiment [1] (T3 alone at two concentrations vs vehicle (DMSO)), the “MB cell proliferation (CCK8)” value is recorded as “decreased”. Also, the mice survival entry in [2] (setting [11]) and in experiment [4] (setting [11]) was “prolonged” each time. For the same molecule, the “NeuN (differentiation marker) expression in tumor tissues” value in experiment [2] (setting [12]) and in [4] (setting [12]) was “enhanced expression” each time. Besides, the “pHH3 (cell proliferation marker) in tumor tissues” value in [2] (setting [12]) and in [4] (setting [12]) was “decreased” throughout. Moreover, the “proliferation of group3 tumor cells (percentage of EdU+ cells)” value in [3], in experiment [5] and in experiment [8] was “significantly inhibited” each time. Moreover, in [4] (T3-treated mice), the “tumor progression in vivo” value is reported as “repressed tumor progression”. For the same molecule, the “MB growth (in vivo bioluminescence)” value in experiment [6] was “significantly inhibited”. For the same molecule, the “MAP2 expression (differentiation marker)” value in [7] was “increased”. Besides, the “survival of recipient mice” value in experiment [9] (T3 i.p. compared with PBS treatment, p<0.01) is given as “significantly prolonged”. In addition, the “tumor progression in recipient mice” value in experiment [9] (T3 i.p. vs PBS, after tumors were established) is listed as “significantly repressed”. For the same molecule, in [9] (T3 i.p., PBS treatment 15 days, p<0.01), the median survival entry is “undefined”. In addition, the “proliferation of medulloblastoma cells (percentage of EdU+ cells)” value in experiment [10] is on record as “significantly inhibited”.
